One data set concerns h15-LOX-1. To be noted: cited from earlier work.
The conditions of data set [1]: possibly due to cellular lability of the ester moiety; cited from earlier work.
For a further data set, the target named is T1, h15-LOX-1 F414I (Homo sapiens, UniProt P16050, F414I).
T1 sequence (P16050 1-662 F414I): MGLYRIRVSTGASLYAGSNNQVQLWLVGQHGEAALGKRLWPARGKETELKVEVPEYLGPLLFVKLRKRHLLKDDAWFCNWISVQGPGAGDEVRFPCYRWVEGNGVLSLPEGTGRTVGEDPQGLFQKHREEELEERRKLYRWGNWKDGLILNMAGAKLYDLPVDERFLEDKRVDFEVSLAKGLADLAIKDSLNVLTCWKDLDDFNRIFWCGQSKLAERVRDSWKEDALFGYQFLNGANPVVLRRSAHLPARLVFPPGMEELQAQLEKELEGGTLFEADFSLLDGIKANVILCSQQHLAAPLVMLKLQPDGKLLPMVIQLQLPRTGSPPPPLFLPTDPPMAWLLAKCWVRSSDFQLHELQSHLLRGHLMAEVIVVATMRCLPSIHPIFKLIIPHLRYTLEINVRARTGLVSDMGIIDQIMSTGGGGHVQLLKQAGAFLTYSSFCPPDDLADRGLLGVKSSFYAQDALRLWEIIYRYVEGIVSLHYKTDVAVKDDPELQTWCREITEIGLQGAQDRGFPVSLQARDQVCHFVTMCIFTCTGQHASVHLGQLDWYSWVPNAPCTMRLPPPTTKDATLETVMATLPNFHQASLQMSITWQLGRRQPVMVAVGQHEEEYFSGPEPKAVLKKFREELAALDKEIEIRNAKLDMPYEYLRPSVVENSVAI
The experiment in a line: Steady-state substrate kinetics, F414I. Format: biochemical. To be noted: error in parentheses.

Another data set addresses T2, WT h15-LOX-1 (Homo sapiens, UniProt P16050).
T2 sequence (P16050 1-662): T1 sequence (P16050 1-662 F414I) with I414F
The experiment in a line: Steady-state substrate kinetics, WT. To be noted: error in parentheses. The class given is biochemical.

For data set [2] the following is noted: cited from earlier work.
For data set [3] the following is noted: cited from earlier work. This is another data set of the same source.
In a further data set the test system is rat LOX ortholog. The note with it: cited from earlier work.
A further data set has as its system dog LOX ortholog. The note with it: cited from earlier work.
Substrate in data set [4]: CCCCC/C=C\C/C=C\C/C=C\C/C=C\CCCC(=O)O
The experiment in a line: Steady-state substrate kinetics, Q547L. To be noted: other: Q547L; error in parentheses; unit inferred; pH 7.5. Format: biochemical, human.

Substrate in data set [5]: CCCCC/C=C\C/C=C\C/C=C\C/C=C\CCCC(=O)O
Description: Steady-state substrate kinetics, E356Q. Format: biochemical, human. To be noted: other: E356Q; error in parentheses; unit inferred; pH 7.5.

Substrate in data set [6]: CCCCC/C=C\C/C=C\C/C=C\C/C=C\CCCC(=O)O
The experiment in a line: Steady-state substrate kinetics, F414W. The class given is biochemical, human. To be noted: other: F414W; error in parentheses; unit inferred; pH 7.5.

Substrate in data set [7]: CCCCC/C=C\C/C=C\C/C=C\C/C=C\CCCC(=O)O
Description: Steady-state substrate kinetics, L407A. Format: biochemical, human. The note with it: other: L407A; error in parentheses; unit inferred; pH 7.5.

Substrate in data set [8]: CCCCC/C=C\C/C=C\C/C=C\C/C=C\CCCC(=O)O
Description: Steady-state substrate kinetics, F414I. To be noted: other: F414I; error in parentheses; unit inferred; pH 7.5. The class given is biochemical, human.

Residue numbers refer to the chain shown, from its start. Names may count otherwise.

Consider `CCCCCc1ccc(S(=O)(=O)NCCc2c(-c3ccc(C(F)(F)F)cc3)[nH]c3ccccc23)cc1` [tryptamine sulfonamide], for which the “potency against h15-LOX-1” value in the data set with h15-LOX-1 was 21 nM.

Regarding `O=C(OCC#CCSc1nnc(-c2cccc3ccccc23)o1)c1cccs1` [ML094, 4-(5-(Naphthalen-1-yl)-1,3,4-oxadiazol-2-ylthio)but-2-ynylthiophene-2-carboxylate], in data set [1], the activity in vivo result is given as “no activity”. Regarding `CCCCC/C=C\C/C=C\CCCCCCCC(=O)O` [LA, linoleic acid], the kcat on h15-LOX-1 F414I (no unit in table (sec^−1)) is reported as 1.6 (0.03); at WT h15-LOX-1 (no unit in table (sec^−1)), 11 (0.4). Further, the Km was determined as 6.1 µM at h15-LOX-1 F414I (unit inferred) and 7.7 µM on WT h15-LOX-1 (substrate 1-20 µM, unit inferred). Take `CNc1oc(-c2cccc3ccccc23)nc1C#N` [ML351, 5-(methylamino)-2-(naphthalene-1-yl)oxazole-4-carbonitrile]: in [2], the “in vivo activity in mice” value is given as “exhibits in vivo activity”. Turning to `O=C(Nc1ccc(F)cc1Cl)c1c[nH]nn1` [BLX-2477, N-(2-chloro-4-fluorophenyl)triazole-4-carboxamide], in [3], the “adverse off-target effects in mini-pigs” value is on record as “adverse off-target effects”. For the same molecule, the “potency against rat LOX ortholog” value in the data set on rat LOX ortholog is given as “not potent”. The “potency against dog LOX ortholog” value in the data set on dog LOX ortholog is listed as “not potent”. In the data set on h15-LOX-1, the “potency against h15-LOX-1” value was 99 nM.

B1: h15-LOX-1 Q547L (Homo sapiens; Q547L) (protein)
chain: T1 sequence (P16050 1-662 F414I) with I414F, Q547L
With B1, the Km in [4] came to 11 µM.

B2: h15-LOX-1 E356Q (Homo sapiens; E356Q) (protein)
chain: T1 sequence (P16050 1-662 F414I) with E356Q, I414F
B2: in data set [5], the Km is 4.1 µM.

B3: h15-LOX-1 F414W (Homo sapiens; F414W) (protein)
chain: T1 sequence (P16050 1-662 F414I) with I414W
Consider B3, for which, in [6], the Km is 6.5 µM.

B4: h15-LOX-1 L407A (Homo sapiens; L407A) (protein)
chain: T1 sequence (P16050 1-662 F414I) with L407A, I414F
In the case of B4, the Km in [7] stood at 5.5 µM.

B5: h15-LOX-1 F414I (Homo sapiens; F414I) (protein)
chain: T1 sequence (P16050 1-662 F414I)
With B5, the Km in [8] turned out to be 11 µM.

As a reminder, the Km is the concentration of substrate that gives half-maximal velocity.

Values taken from article PMC5065787 (Bioorganic & medicinal chemistry, 2016).
